Measured values: patent US20120046224A1, “TREATMENT OF DIABETES AND METABOLIC SYNDROME” (NORDIC BIOSCIENCE A/S, priority 2009, published 2012)

Legend:
[1] = test system: CTX-II; experiment: Serum CTX-II after oral dosing in fasted rats; type: in vivo, rat; conditions: sCT 2 mg/kg, carrier 150 mg/kg
Procedure: Fasted rats were treated with oral doses of carrier alone (5-CNAC or SNAC), sCT alone or sCT in combination with carrier (5-CNAC or SNAC). Blood sampling was conducted at baseline, one, three and six hours after oral dosing, and serum was isolated. Concentrations of CTX-II were subsequently measured in the serum samples.
Rats were randomized according to weight into five groups and fasted over night. […] Blood samples were taken from tail vein at baseline, one, three and six hours after oral dosing. Serum was isolated from the blood samples and CTX-II concentrations were measured in undiluted serum samples. […] Each group contained 6 animals. Statistical analyses were conducted with one-way ANOVA and Bonferroni's Multiple Comparison Test to adjust for multiple tests. Error bars indicate standard error of mean (SEM). Asterisks indicate: **=p<0.01, ***=p<0.001.

[2] = i.m. 100 MRC units twice daily, 15 days; cited from earlier work
[3] = intra-muscular, cited from earlier work
[4] = rats and mice, intravenous bolus injection; cited from earlier work
[5] = 100 MRC units per day, 2 months, cited from earlier work
[6] = fasting animals, parenterally administered; cited from earlier work
[7] = rats, intracerebroventricular administration; cited from earlier work
[8] = latent diabetes in humans, infusion; cited from earlier work
[9] = rabbits, injection, 600 MRC U per month or 50 MRC U single dose; cited from earlier work
[10] = test system: rat hepatocytes; conditions: cited from earlier work
[11] = cited from earlier work
[12] = Paget's disease of the bone patients, injection; cited from earlier work
[13] = Body weight and whole body composition (MR scanning) in DIO rats; type: in vivo, rat; conditions: for increase in fat content (MR analysis): CT 2 mg/kg/day with 5-CNAC
Procedure: (§1) A total of 48 selectively bred male DIO rats were used. At the beginning of the experiment, the animals had reached an age of 35 weeks, out of which 31 weeks were on high-fat diet.
(§2) At day −7, 21 and 42 fasted serum and urine samples were collected and whole body tissue composition was evaluated by MR scanning. At day 42, an oral glucose tolerance test (OGTT) was performed to evaluate glucose homeostasis in the rats. At day −1 the animals were stratified according to weight and whole body fat mass (assessed by a 4-in-1 EchoMRI scanner) to the different treatment groups. The groups were randomized in three teams by body weight.
First day of dosing was day 0. Animals were dosed per oral 5 ml/kg. The compound solution was administered once daily at 7:00 AM-2:00 PM during the whole study (0-42 days) per oral gavage using a gastric tube connected to a 5 ml syringe (luer lock™. Becton).
To assess the distribution of the gained weight during the treatment program the animals were subjected to MR analysis after termination. Two parameters were investigated: 1) change in fatty mass and, 2) change in total water content.

[14] = test system: DIO rats; experiment: Oral glucose tolerance test (OGTT) in DIO rats; type: in vivo, rat
Procedure: as §1, §2
First day of dosing was day 0. Animals were dosed per oral 5 ml/kg.
In order to test the glucose handling in different treatment groups, an oral glucose tolerance test (OGTT) was performed.

[15] = Weight gain in normal Sprague-Dawley rats; type: in vivo, rat; conditions: twice daily oral, salmon calcitonin 2 mg/kg/day with 5-CNAC 150 mg/kg/day, 8 weeks, vs control group
Procedure: (§3) A total of 40 rats were divided into 4 groups, two bilateral ovariectomy (OVX) groups and two normal groups.
(§4) The first day of dosing was day 0. Animals were dosed per oral 5 ml/kg. The compound solution was administered twice daily, the first dose at 7:00 AM and the second dose 8 hours later (between 3 and 4 PM) during the whole study. The dosing was done by oral gavage using a gastric tube connected to a 5 ml syringe. Feeding was ad libitum.

[16] = rats or mice, cited from earlier work
[17] = insulin dependent diabetic patients, intravenous infusion; cited from earlier work
[18] = test system: Sprague Dawley rats; experiment: OGTT in healthy lean Sprague Dawley rats; type: in vivo, rat
Procedure: The rats were treated bi daily for 5 weeks using the same dose as in the DIO rats.

[19] = rhesus monkeys, parenteral, 5 day administration period; cited from earlier work
[20] = healthy volunteers, intramuscular; cited from earlier work
[21] = Ovariectomy (OVX)-induced weight gain in Sprague-Dawley rats; type: in vivo, rat
Procedure: as §3, §4
A total of 20 rats were bilaterally ovariectomized (OVX). The animals were treated once daily with either 5-CNAC 150 mg/kg/day alone or that amount of 5-CNAC in combination with Calcitonin 2 mg/kg/day for 8 weeks during which the weight was monitored once a week. Feeding was again ad libitum.
The first day of dosing was day 0. Animals were dosed per oral 5 ml/kg. The compound solution was administered once daily between 7:00 and 8:00 AM during the whole study per oral gavage using a gastric tube connected to a 5 ml syringe.

[22] = 62.26 pmol/kg, patients with a duodenal ulcer; cited from earlier work

## Salmon calcitonin [CT]
[1]; one hour after oral dosing, vs carrier alone
  serum CTX-II concentration: significantly lowered the CTX-II concentration
[1]; three and six hours after oral dosing
  serum CTX-II concentration: return to the baseline level
[2]
  carbohydrate metabolism after a mixed meal stimulus: not seen to cause appreciable change in carbohydrate metabolism
[3]; humans
  integrated glucose areas under plasma glucose curves: approximately doubling
[3]; normal humans
  response to a glucose tolerance test: a deterioration in response to a glucose tolerance test
[4]
  fasting plasma glucose: elevation of fasting plasma glucose
[5]; Paget's disease or osteoporosis patients
  glucose tolerance: Glucose tolerance did not deteriorate significantly
[5]
  basal plasma glucose: significant increase in basal plasma glucose
[6]
  glucose levels: a rise in glucose levels
[7]
  glucose stimulated release of insulin: increased glucose stimulated release of insulin
[8]
  serum level of insulin and blood sugar: reducing the serum level of insulin and increasing the blood sugar
[9]
  glucose level measured after fasting: marked decrease in glucose level
[10]
  effect on rat hepatocytes and other cells: little effect
[11]; insulin dependent diabetics
  glucose level and glucagon: a fall in glucose level along with the fall in glucagon
[11]; normal human volunteers, infused
  circulating glucagon and serum insulin: a fall in circulating glucagon levels and a fall in serum insulin
[12]
  serum glucose and serum insulin: a moderate immediate rise in serum glucose and a slight decrease in serum insulin
[13]; compared to 5-CNAC and vehicle groups
  increase in fat content (MR analysis): a significant increase compared to the 5-CNAC and vehicle groups
[13]; compared to rosiglitazone group, p<0.0001
  increase in fat content (MR analysis): significantly lower increase in the fat content compared to rosiglitazone group
[13]; once daily oral, Calcitonin 2 mg/kg/day with 5-CNAC 150 mg/kg/day, or 5-CNAC 150 mg/kg/day alone
  change in body weight: Neither the CT treated group nor the 5-CNAC group display any change in their body weight
[14]
  AUC of change in insulin levels during OGTT: lowest change in insulin levels
  AUC of net change in plasma glucose (glucose clearance during OGTT): significantly increased glucose clearance during the OGTT
[14]; CT compared to Rosiglitazone groups
  effect on AUC of change in glucose: markedly larger than the changes seen in the Rosiglitazone groups
[14]; CT treated compared to 5CNAC group
  peak glucose levels during OGTT: strongly reduced peak glucose levels
[14]; OGTT
  basal insulin level to which insulin returns after the peak: 4.53 µg/L
[14]; peak 15 minutes after glucose, CT compared to 5-CNAC group
  plasma insulin response during OGTT: attenuated insulin response
[14]; reached 15 minutes after OGTT (CT), at 60 minutes (5-CNAC)
  maximum / peak blood glucose level during OGTT: 8.2 mM
[15]
  natural weight gain: reduction of the natural weight gain
[16]; acute parenteral administration
  short term food intake: potently induced reduction in short term food intake
[16]; parenteral
  duration of the effect on food intake: 3 days
[17]
  glucose rise in arginine tolerance test: abolished the glucose rise normally seen in an arginine tolerance test
[18]
  AUC of change in glucose during OGTT: potently reduces glucose levels
  increase of insulin level in response to OGTT: approximately 0.5 μg/L
[18]; OGTT
  time until insulin level returned to basal: 60 min
[18]; between groups, p=0.08
  AUC of change in insulin levels during OGTT: the AUC of change is significant between the groups
[18]; treated bi daily for 5 weeks, same dose as in DIO rats
  basal glucose levels: lowered basal glucose levels
[18]; vs vehicle (5-CNAC) group
  peak glucose level during OGTT: prevented this drastic peak
[19]
  food intake: reduce food intake in rhesus monkeys throughout a 5 day administration period
[20]
  blood glucose during a morning fast and glucose tolerance test: inhibited decrease of blood glucose during a morning fast and impaired a glucose tolerance test
[21]; once daily oral, 8 weeks
  OVX-induced weight gain: does not protect against OVX-induced weight gain
[21]; twice daily oral, 7 weeks
  OVX-induced increase in bodyweight: protected partially against the OVX-induced increase in bodyweight
[22]
  post-prandial insulin release: post-prandial insulin release was abolished
